Test results: patent publication US7192763B2, “Streptomyces anulatus microorganism and a process for producing the substance GM-95” (Sosei Co., Ltd., priority 2001, dated 2007)

How the values were obtained:
[1] = test system: OVCAR-3 (human ovarian cancer); experiment: Tumor cell growth inhibition (crystal violet), OVCAR-3; format: cell-based; settings: 72 hours, read-out: Concentrations for 50% growth inhibition of various tumor cells (IC50)
Experimental: (§1) Tumor cells described in Table 5 were suspended in RPMI1640 medium containing 10% fetal calf serum, plated into culture plates (38 mm) at the density of in 2×10^3 cells each, and cultured in 37° C., 5% CO2 incubator overnight. Subsequently, experimental agents (the compound of the invention and 5-fluorouracil) diluted to various concentrations using RPMI1640 medium containing 10% fetal calf serum were added to each plate, and further cultured for 72 hours. After the cell culture was completed, those cells were fixed with 25% glutalaldehyde for 15 minutes and washed with water three times. After that, the cells were stained with 0.05% crystal violet diluted in 20% methanol aqueous solution, washed with water three times and then dried. The crystal violet were extracted with 100 μl of 0.05M sodium dihydrogenphosphate/ethanol (1/1(v/v)), their absorbance at 540 nm were determined by an automatic spectroscope. “IC50” was defined as the concentration required for a 50% reduction in growth compared to the control absorbance.

[2] = test system: PC-3 (human prostate cancer); experiment: Tumor cell growth inhibition (crystal violet), PC-3; format: cell-based; settings: 72 hours, read-out: Concentrations for 50% growth inhibition of various tumor cells (IC50)
Experimental: as §1

[3] = test system: SKOV-3 (human ovarian cancer); experiment: Tumor cell growth inhibition (crystal violet), SKOV-3; format: cell-based; settings: SK-OV-3, 72 hours, read-out: Concentrations for 50% growth inhibition of various tumor cells (IC50)
Experimental: as §1

[4] = test system: MCF-7 (human breast cancer); experiment: Tumor cell growth inhibition (crystal violet), MCF-7; format: cell-based; settings: MCF7, 72 hours, read-out: Concentrations for 50% growth inhibition of various tumor cells (IC50)
Experimental: as §1

[5] = test system: ZR75-1 (human breast cancer); experiment: Tumor cell growth inhibition (crystal violet), ZR75-1; format: cell-based; settings: ZR-75-1, 72 hours, read-out: Concentrations for 50% growth inhibition of various tumor cells (IC50)
Experimental: as §1

[6] = test system: PAN-3 (human pancreatic cancer); experiment: Tumor cell growth inhibition (crystal violet), PAN-3; format: cell-based; settings: 72 hours, read-out: Concentrations for 50% growth inhibition of various tumor cells (IC50)
Experimental: as §1

[7] = test system: KM12C-SM (human colon cancer); experiment: Tumor cell growth inhibition (crystal violet), KM12C-SM; format: cell-based; settings: 72 hours, read-out: Concentrations for 50% growth inhibition of various tumor cells (IC50)
Experimental: as §1

A375SM (human melanoma) = experiment: Tumor cell growth inhibition (crystal violet), A375SM; format: cell-based; settings: A375-SM, 72 hours, read-out: Concentrations for 50% growth inhibition of various tumor cells (IC50)
Experimental: as §1

[8] = test system: TMK-1 (human gastric cancer); experiment: Tumor cell growth inhibition (crystal violet), TMK-1; format: cell-based; settings: 72 hours, read-out: Concentrations for 50% growth inhibition of various tumor cells (IC50)
Experimental: as §1

[9] = test system: HT-29 (human colon cancer); experiment: Tumor cell growth inhibition (crystal violet), HT-29; format: cell-based; settings: 72 hours, read-out: Concentrations for 50% growth inhibition of various tumor cells (IC50)
Experimental: as §1

[10] = test system: DLD-1 (human colon cancer); experiment: Tumor cell growth inhibition (crystal violet), DLD-1; format: cell-based; settings: 72 hours, read-out: Concentrations for 50% growth inhibition of various tumor cells (IC50)
Experimental: as §1

[11] = test system: Renca (mouse renal cancer); experiment: Tumor cell growth inhibition (crystal violet), Renca; format: cell-based; settings: 72 hours, read-out: Concentrations for 50% growth inhibition of various tumor cells (IC50)
Experimental: as §1

telomerase = biological target: T1, telomerase (Homo sapiens, UniProt O14746); experiment: Telomerase-inhibiting activity using cell extracts containing telomerase; format: biochemical; settings: read-out: concentration for inhibiting telomerase activity by 50% (IC50) in cell extracts
T1 construct: using cell extracts containing telomerase according to the conventional manner; endogenous in cells
Excerpt: The compound of the invention was subjected to the examination of telomerase-inhibiting activity using cell extracts containing telomerase according to the conventional manner, to provide the concentration for inhibiting telomerase activity by 50% (IC50) in cell extracts.

Solubilities in solvents = format: physicochemical
Excerpt: Insoluble in water and in acetone.
Soluble in a mixture of chloroform:methanol=1:1 • 8) Color of the substance: white yellowish powders • 9) Nuclear magnetic resonance spectrum

T1 sequence (O14746 whole entry): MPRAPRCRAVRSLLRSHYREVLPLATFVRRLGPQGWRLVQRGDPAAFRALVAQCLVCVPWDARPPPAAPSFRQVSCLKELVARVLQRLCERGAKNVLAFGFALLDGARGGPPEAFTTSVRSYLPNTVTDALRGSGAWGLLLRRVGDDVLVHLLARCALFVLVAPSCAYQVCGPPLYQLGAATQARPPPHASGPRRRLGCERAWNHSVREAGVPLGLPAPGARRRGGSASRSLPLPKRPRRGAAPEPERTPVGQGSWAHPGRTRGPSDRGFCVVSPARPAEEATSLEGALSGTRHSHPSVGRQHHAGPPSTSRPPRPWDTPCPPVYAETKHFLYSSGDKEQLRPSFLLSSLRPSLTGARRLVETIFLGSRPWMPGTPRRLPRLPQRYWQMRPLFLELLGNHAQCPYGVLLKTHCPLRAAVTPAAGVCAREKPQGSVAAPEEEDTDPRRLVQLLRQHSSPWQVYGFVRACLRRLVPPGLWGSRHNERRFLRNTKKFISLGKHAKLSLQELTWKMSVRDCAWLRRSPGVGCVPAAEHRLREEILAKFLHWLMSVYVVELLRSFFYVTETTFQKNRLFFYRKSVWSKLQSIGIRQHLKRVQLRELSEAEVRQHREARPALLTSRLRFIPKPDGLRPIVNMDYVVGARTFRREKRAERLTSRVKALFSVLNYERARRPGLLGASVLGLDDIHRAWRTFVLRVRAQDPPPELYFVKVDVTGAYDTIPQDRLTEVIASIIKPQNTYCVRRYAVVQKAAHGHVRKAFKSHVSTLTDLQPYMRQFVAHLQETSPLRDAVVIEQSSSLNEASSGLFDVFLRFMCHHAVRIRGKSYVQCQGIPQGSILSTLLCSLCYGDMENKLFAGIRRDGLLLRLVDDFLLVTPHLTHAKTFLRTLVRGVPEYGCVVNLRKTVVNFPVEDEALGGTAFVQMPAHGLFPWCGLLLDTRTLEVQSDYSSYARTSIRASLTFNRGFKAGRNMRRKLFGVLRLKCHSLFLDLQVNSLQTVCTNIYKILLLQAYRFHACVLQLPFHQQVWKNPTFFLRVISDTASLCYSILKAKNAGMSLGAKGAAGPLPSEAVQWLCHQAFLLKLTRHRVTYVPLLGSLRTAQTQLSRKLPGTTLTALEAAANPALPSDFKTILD

Compound: Cc1oc2nc1-c1nc(co1)-c1nc(co1)-c1nc(co1)-c1nc(co1)-c1nc(co1)C1=NC(CS1)c1nc-2c(C)o1 (stereo not shown) [Substance GM-95]
- IC50 [1]: 3.41 µM
- IC50 [2]: 8.82 µM
- IC50 [3]: 3.73 µM
- IC50 [4]: 7.73 µM
- IC50 [5]: 4.04 µM
- IC50 [6]: 7.09 µM
- IC50 [7]: 3.74 µM
- IC50 (A375SM (human melanoma)): 7.04 µM
- IC50 [8]: 3.75 µM
- IC50 [9]: 7.1 µM
- IC50 [10]: 6.2 µM
- IC50 [11]: 0.97 µM
- IC50 (telomerase): 0.05 µM
- Solubility in acetone (Solubilities in solvents; acetone): Insoluble
- Solubility in a mixture of chloroform:methanol=1:1 (Solubilities in solvents; chloroform:methanol=1:1): Soluble
- Solubility in water (Solubilities in solvents; water): Insoluble

Compound: O=c1[nH]cc(F)c(=O)[nH]1 [5-fluorouracil, reference compound]
- IC50 [1]: 0.37 µM
- IC50 [2]: 5.7 µM
- IC50 [3]: 7.84 µM
- IC50 [4]: 1.12 µM
- IC50 [5]: 3.63 µM
- IC50 [6]: 8.82 µM
- IC50 [7]: 1.32 µM
- IC50 (A375SM (human melanoma)): 2.89 µM
- IC50 [8]: 0.33 µM
- IC50 [9]: 2.1 µM
- IC50 [10]: 5.5 µM
- IC50 [11]: 0.58 µM
